Experimental data taken from patent US11921020B2, “Method of purifying tumor cells using shear stress” (UNIVERSITY OF IOWA RESEARCH FOUNDATION, priority 2011, dated 2024).

How the values were obtained:
PC-3 cells = experiment: Fluid shear stress protocol (repeated passage through 30 gauge needle), cell viability; assay type: cell-based, human; details: for shear stress resistance of cells in PBS supplemented with the cation: 88 mM final concentration, n=1
Description: (§1) 5 mL of a 5×10^5 cell/mL suspension was placed into 10 mL glass beaker (Pyrex) and loaded into a 5 mL syringe (BD Biosciences #309603) by slowly drawing the cells into the syringe manually. A 30 gauge needle (BD Biosciences #305106) was then attached to the syringe and cells were pushed through at a constant flow rate by one of two methods:
Syringe Pump: A Harvard Apparatus PHD-2000 Infuse/Withdraw syringe pump was calibrated for the syringes being used and set to the appropriate flow rate (see Table I). After securing the syringe to the pump housing, a 6-inch small bore extension set (Smiths Medical MX448L) was used to connect the syringe and needle. The 10 mL beaker was secured at a 45-degree angle and the needle rested gently (without damaging the bevel) at the bottom of the beaker. The pump is then turned on and the cell suspension was collected into the beaker. The bore extension, still connected to the needle, was then removed from the syringe, and the syringe was removed from the pump. The cell suspension was re-loaded into the syringe as described above. In a standard assay, this process was repeated until cells have been passaged a total of ten times (control experiments were taken out to 15 passages). After each passage, 100 μL aliquots of cell suspension were removed from the glass beaker in duplicate for viability assays (described below). For non-shear stress treated control, cells which have been in suspension for the entire duration of the assay were aliquoted and treated as 100% viability controls.
(§2) 250 μL/sec flow rate: This is the most commonly used flow rate throughout this example. To facilitate throughput, some experiments at 250 μL/sec were done manually. Here, cell suspensions were prepared as above with one exception: the small bore extension was not used, rather the needle was directly secured to the syringe. Suspensions were pushed through the needle by hand and collected into a 10 mL glass beaker. To control the flow rate using this approach, a timer was zeroed before each needle passage and the time taken to push a given volume through the needle was measured. At each passage, the volume in milliliters was divided by the time in seconds to give flow rate in mL/sec. Data for figures was only obtained from shear stress assays in which the average flow rate over 10 passages was ±10 μL/sec of the targeted 250 μL/sec. […] Further, to assure reproducibility, most assays were repeated ten times or more.
Bioluminescence Imaging (BLI): 100 μL aliquots of shear stress-treated cells or control cells (those sitting in suspension through the duration of shear treatment) were loaded into a black 96 well plate (Costar) in duplicate. Each well was then diluted to 200 μL at final concentration of 150 μg/mL D-luciferin (Promega) using a multichannel pipette. Plates were incubated for 5 minutes at room temperature and then imaged for 5 minutes in an IVIS-100 (Xenogen). Bioluminescence measurements were collected using Living Image 2.50.1 software (Igor Pro). The photon flux of shear treated cells was divided by that of control cells to give % viability. All figures with BLI-derived viability data represent the average of at least 3 experiments.
Next, whether rearrangements of the cytoskeleton occur in response to shear stress and thereby imparts a protective advantage to cells was investigated. […]

MDA.MB.231 cells = experiment: as above; assay type: cell-based, human
Description: as §1
as §2, with “more. […]” for “more.”

[1] = 20 nM for one hour before shear stress protocol
[2] = brief treatment prior to shear stress protocol

Row | SMILES | shear stress resistance of cells in PBS supplemented with the cation (PC-3 cells; 250 μL/sec) | survival curve under shear stress of cells in PBS supplemented with the cation (PC-3 cells; 250 μL/sec, calcium at same concentration as complete medium (129.4 μg/mL)) | cell death in treated cells versus DMSO treated controls after shear stress protocol (PC-3 cells; [1]) | cell viability during pretreatment, before shear stress (PC-3 cells; [2]) | cell death in treated cells versus DMSO treated controls after shear stress protocol (MDA.MB.231 cells; [1]) | cell viability during pretreatment, before shear stress (MDA.MB.231 cells; [2])
1 | [Ca+2] [calcium] | rescues the shear stress resistance phenotype | not significantly different from the media control suspensions | – | – | – | –
2 | C=C1[C@@H](C)[C@H]2[C@H](Cc3ccccc3)NC(=O)[C@]23[C@H](OC(C)=O)/C=C/[C@@](C)(O)C(=O)[C@@H](C)C/C=C/[C@H]3[C@@H]1O [cytochalasin-D] | – | – | over 3 fold | not affected | over 3 fold | not affected
3 | [Ba] [barium] | equally susceptible to shear stress as cells in nominally calcium-free PBS | – | – | – | – | –
